US20240252488A1 (KOREA RESEARCH INSTITUTE OF CHEMICAL TECHNOLOGY, priority 2020, published 2024)

Legend:
FADD−/− Jurkat cells = experiment: Necroptosis inhibition assay, TNF-α-induced necroptosis (CellTiter-Glo 2.0); format: cell-based, human; settings: TNF-α 15 ng/mL; for Necroptosis inhibition assay (Rescue %) 1 μM: compound 1 μM; for Necroptosis inhibition assay (Rescue %) 10 μM: compound 10 μM
How it was run: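 Necroptosis induced by 15 ng/mL TNF-α (final) for 20–24 h at 37 °C, after a 30 min room-temperature pretreatment of FADD-deficient Jurkat cells with 0.1, 1 or 10 μM compound. ATP-based luminescence gave viability, from which inhibition rate and cytotoxicity were derived.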

MLKL [1] = biological target: T1, MLKL (Homo sapiens, UniProt Q8NB16); experiment: Measurement of binding affinity with MLKL receptor (competitive binding assay, Kd); set-up: made in house; host or cells: HEK 293 cell line (T7 phage in E. coli BL21-derived host is also described)
T1 sequence (Q8NB16 1-471): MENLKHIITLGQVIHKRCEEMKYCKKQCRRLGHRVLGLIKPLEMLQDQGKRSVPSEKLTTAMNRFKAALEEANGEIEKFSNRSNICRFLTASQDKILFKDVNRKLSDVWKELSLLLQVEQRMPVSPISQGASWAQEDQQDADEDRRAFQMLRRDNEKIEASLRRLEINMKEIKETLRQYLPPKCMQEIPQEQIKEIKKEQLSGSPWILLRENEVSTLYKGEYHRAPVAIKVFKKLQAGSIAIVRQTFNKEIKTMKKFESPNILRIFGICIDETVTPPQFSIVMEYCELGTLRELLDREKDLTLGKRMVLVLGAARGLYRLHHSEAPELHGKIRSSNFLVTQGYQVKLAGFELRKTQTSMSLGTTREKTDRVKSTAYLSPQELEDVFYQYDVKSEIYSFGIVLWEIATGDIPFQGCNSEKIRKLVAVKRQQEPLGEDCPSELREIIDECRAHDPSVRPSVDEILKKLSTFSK
How it was run: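 Competition binding of kinase tagged with DNA for qPCR detection, expressed in HEK 293 cells, against immobilized ligand on beads. Final DMSO 0.9%. Kd derived from kinase amount in eluates measured by qPCR.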

MLKL [2] = biological target: T1, MLKL; experiment: MLKL degradation assay in HepG2 cell line (western blot); format: cell-based; set-up: endogenous in cells; host or cells: HepG2 or HaCaT; settings: cell line not given; for Degradation assay (Degradation %) 1 μM: compound 1 μM; for Degradation assay (Degradation %) 10 μM: compound 10 μM
How it was run: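 Western blot chemiluminescence of MLKL in equal-protein lysates (10-15 μg, BCA-adjusted). Before lysis, HepG2 cells were exposed to 1 or 10 μM (final) test compound for 20-24 h at 37 °C.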

| SMILES | Necroptosis inhibition assay (Rescue %) 1 μM (FADD−/− Jurkat cells) [%] | Necroptosis inhibition assay (Rescue %) 10 μM (FADD−/− Jurkat cells) [%] | Kd (MLKL [1]) [nM] | Degradation assay (Degradation %) 1 μM (MLKL [2]) [%] | Degradation assay (Degradation %) 10 μM (MLKL [2]) [%] | Necroptosis inhibition assay (Rescue %) 1 μM (FADD−/− Jurkat cells; FADD−/− Jurkat cells) [%] | Necroptosis inhibition assay (Rescue %) 10 μM (FADD−/− Jurkat cells; FADD−/− Jurkat cells) [%] |
| --- | --- | --- | --- | --- | --- | --- | --- |
| Nc1ncc(-c2cnn(C3CCN(CCOC4CCN(C(=O)CCc5cccc6c5C(=O)N(C5CCC(=O)NC5=O)C6=O)CC4)CC3)c2)nc1C(=O)O[C@@H](C(=O)Nc1ccc(F)cc1)c1ccccc1 (stereo partly drawn) [TDH-378, (R)-2-((4-fluorophenyl)amino)-2-oxo-1-phenylethyl 3-amino-6-(1-(1-(2-((1-(3-(2-(2,6-dioxopiperidin-3-yl)-1,3-dioxoisoindolin-4-yl)propanoyl)piperidin-4-yl)oxy)ethyl)piperidin-4-yl)-1H-pyrazol-4-yl)pyrazine-2-carboxylate] | 49.61 | 28.89 | 2 | 88.62 | 80.01 |  |  |
| Nc1ncc(-c2cnn(C3CCN(CCC4CCN(C(=O)C5CCN(c6ccc7c(c6)C(=O)N(C6CCC(=O)NC6=O)C7=O)CC5)CC4)CC3)c2)nc1C(=O)O[C@@H](C(=O)Nc1ccc(F)cc1)c1ccccc1 (stereo partly drawn) [TDH-197, (R)-2-((4-fluorophenyl)amino)-2-oxo-1-phenylethyl 3-amino-6-(1-(1-(2-(1-(1-(2-(2,6-dioxopiperidin-3-yl)-1,3-dioxoisoindolin-5-yl)piperidine-4-carbonyl)piperidin-4-yl)ethyl)piperidin-4-yl)-1H-pyrazol-4-yl)pyrazine-2-carboxylate] | 56.07 | 32.02 | 0.74 | 58.62 | 23.6 |  |  |
| Nc1ncc(-c2cnn(C3CCN(CCCN4CCN(C(=O)COc5cccc6c5C(=O)N(C5CCC(=O)NC5=O)C6=O)CC4)CC3)c2)nc1C(=O)OC(C(=O)Nc1ccc(F)cc1)c1ccccc1 (stereo not shown) [TDH-243, 2-((4-fluorophenyl)amino)-2-oxo-1-phenylethyl 3-amino-6-(1-(1-(3-(4-(2-((2-(2,6-dioxopiperidin-3-yl)-1,3-dioxoisoindolin-4-yl)oxy)acetyl)piperazin-1-yl)propyl)piperidin-4-yl)-1H-pyrazol-4-yl)pyrazine-2-carboxylate] | 61.25 | 53.31 | 0.94 | 57.14 | 54.82 |  |  |
| Nc1ncc(-c2cnn(C3CCN(CCOC4CCN(c5cccc6c5C(=O)N(C5CCC(=O)NC5=O)C6=O)CC4)CC3)c2)nc1C(=O)OC(C(=O)Nc1ccc(F)cc1)c1ccccc1 (stereo not shown) [TDH-253, 2-((4-fluorophenyl)amino)-2-oxo-1-phenylethyl 3-amino-6-(1-(1-(2-((1-(2-(2,6-dioxopiperidin-3-yl)-1,3-dioxoisoindolin-4-yl)piperidin-4-yl)oxy)ethyl)piperidin-4-yl)-1H-pyrazol-4-yl)pyrazine-2-carboxylate] | 65.01 | 36.1 | 10 | 80.74 | 59.15 |  |  |
| Nc1ncc(-c2cnn(C3CCN(C(=O)CC4CCN(C(=O)C5CN(c6ccc7c(c6)C(=O)N(C6CCC(=O)NC6=O)C7=O)C5)CC4)CC3)c2)nc1C(=O)O[C@@H](C(=O)Nc1ccc(F)cc1)c1ccccc1 (stereo partly drawn) [TDH-401, (R)-2-((4-fluorophenyl)amino)-2-oxo-1-phenylethyl 3-amino-6-(1-(1-(2-(1-(1-(2-(2,6-dioxopiperidin-3-yl)-1,3-dioxoisoindolin-5-yl)azetidine-3-carbonyl)piperidin-4-yl)acetyl)piperidin-4-yl)-1H-pyrazol-4-yl)pyrazine-2-carboxylate] |  |  | 6.8 | 74.27 | 72.99 | 33.10 | 28.25 |
